From patent US8022206B2 (OSI Pharmaceuticals, LLC, priority 2008, dated 2011)
Read-outs that look alike come from different tables or passages of the source.

What was measured:
RON (human) = RON (human) (Homo sapiens, UniProt Q04912); assay: RON (human) AlphaScreen kinase assay, Km of ATP; format: biochemical
Summary of the method: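 Detection used PT66 AlphaScreen beads added in Tris pH 7.5/NaCl/EDTA/BSA buffer, read after 1 h incubation. Vehicle-only DMSO wells served as controls.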

MET (human) = MET (human) (Homo sapiens, UniProt P08581); assay: MET (human) AlphaScreen kinase assay, Km of ATP; format: biochemical
Summary of the method: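 Human MET at lot-optimised concentration in 50 mM Tris pH 7.4 buffer with 1 mM DTT, compound at 1% DMSO final; enzyme starts the reaction, 60 min at RT.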

[1] = AlphaScreen, Km of ATP, read-out: RON biochemical IC50
[2] = AlphaScreen, Km of ATP, read-out: Met biochemical IC50

Sequence of MET (human) (P08581 25-1390): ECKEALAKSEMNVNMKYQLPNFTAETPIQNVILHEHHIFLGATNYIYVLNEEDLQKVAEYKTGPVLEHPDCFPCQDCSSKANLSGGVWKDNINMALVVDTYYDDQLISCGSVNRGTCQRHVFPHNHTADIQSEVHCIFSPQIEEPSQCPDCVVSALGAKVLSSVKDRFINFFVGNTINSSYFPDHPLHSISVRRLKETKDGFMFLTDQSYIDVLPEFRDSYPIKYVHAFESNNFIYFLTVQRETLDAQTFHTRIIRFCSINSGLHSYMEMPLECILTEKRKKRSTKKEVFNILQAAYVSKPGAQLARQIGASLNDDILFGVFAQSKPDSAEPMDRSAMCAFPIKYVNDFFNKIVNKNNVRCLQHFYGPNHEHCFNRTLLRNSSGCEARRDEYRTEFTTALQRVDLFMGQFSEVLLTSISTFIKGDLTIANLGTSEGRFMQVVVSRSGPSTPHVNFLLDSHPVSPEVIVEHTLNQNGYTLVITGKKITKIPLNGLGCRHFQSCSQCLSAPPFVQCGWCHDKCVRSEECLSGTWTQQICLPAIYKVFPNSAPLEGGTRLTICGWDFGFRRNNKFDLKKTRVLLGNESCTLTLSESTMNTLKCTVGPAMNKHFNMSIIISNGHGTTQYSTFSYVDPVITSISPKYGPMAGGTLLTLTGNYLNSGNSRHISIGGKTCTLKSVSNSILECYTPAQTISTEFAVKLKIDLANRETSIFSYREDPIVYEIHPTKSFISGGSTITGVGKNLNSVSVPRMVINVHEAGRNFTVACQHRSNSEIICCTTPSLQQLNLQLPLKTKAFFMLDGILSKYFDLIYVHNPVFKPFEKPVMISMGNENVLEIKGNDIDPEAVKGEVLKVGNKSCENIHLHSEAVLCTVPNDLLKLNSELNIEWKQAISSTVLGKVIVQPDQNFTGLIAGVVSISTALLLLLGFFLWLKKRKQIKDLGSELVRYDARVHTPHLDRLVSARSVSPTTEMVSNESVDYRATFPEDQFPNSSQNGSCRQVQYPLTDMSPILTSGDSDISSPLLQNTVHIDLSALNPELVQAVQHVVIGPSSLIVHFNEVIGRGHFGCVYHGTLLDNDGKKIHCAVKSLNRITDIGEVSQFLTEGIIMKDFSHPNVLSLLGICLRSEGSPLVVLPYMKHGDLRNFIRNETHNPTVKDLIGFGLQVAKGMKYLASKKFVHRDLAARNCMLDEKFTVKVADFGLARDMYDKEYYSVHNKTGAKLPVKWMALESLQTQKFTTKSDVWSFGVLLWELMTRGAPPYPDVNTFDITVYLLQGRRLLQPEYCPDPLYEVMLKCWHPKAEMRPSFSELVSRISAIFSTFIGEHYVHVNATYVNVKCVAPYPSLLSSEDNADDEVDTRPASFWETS
Sequence of RON (human) (Q04912 25-1400): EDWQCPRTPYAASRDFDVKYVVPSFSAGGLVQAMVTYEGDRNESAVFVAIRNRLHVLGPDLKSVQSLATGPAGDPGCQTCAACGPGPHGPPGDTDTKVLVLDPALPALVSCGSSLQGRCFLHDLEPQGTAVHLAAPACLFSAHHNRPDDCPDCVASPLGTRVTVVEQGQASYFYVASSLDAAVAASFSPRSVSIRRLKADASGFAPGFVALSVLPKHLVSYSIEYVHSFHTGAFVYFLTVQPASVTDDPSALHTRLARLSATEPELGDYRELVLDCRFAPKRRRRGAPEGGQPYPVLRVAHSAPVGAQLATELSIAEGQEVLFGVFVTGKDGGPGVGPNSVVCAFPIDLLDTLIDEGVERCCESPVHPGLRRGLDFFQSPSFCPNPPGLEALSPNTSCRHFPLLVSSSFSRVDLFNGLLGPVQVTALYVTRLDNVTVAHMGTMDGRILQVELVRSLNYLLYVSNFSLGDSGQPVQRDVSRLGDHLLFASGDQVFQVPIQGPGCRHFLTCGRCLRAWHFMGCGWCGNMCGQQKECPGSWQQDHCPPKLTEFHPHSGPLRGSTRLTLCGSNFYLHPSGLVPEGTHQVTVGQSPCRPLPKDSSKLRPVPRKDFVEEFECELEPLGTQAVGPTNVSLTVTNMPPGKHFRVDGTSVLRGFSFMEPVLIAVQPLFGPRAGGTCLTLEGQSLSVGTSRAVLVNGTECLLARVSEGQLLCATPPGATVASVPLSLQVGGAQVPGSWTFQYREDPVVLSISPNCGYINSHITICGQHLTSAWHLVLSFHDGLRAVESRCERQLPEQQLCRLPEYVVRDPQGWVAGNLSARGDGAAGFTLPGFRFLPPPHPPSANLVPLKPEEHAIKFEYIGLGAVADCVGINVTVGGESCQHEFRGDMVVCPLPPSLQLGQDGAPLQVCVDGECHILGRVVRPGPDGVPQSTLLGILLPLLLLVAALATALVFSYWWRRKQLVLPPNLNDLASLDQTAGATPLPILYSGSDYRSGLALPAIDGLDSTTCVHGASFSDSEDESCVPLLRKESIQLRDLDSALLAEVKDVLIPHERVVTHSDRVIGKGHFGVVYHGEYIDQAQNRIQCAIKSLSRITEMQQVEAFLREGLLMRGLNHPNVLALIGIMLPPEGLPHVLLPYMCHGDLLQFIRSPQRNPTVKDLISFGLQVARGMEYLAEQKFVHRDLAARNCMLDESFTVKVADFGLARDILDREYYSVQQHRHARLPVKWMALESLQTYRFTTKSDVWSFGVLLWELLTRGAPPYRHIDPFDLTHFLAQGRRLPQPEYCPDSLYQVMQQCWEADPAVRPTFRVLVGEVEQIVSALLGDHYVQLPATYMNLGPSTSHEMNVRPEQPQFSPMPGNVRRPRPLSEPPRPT

## C[C@@H](Oc1c(N)ncc2c(CO)coc12)c1c(Cl)ccc(F)c1Cl [Example 194, {6-Amino-7-[(R)-1-(2,6-dichloro-3-fluorophenyl)ethoxy]furo[3,2-c]pyridin-3-yl}-methanol]
RON (human); [1]
  IC50: 500 to 5000 nM
MET (human); [2]
  IC50: 500 to 5000 nM

## Cc1csc(-c2coc3c(O[C@H](C)c4c(Cl)ccc(F)c4Cl)c(N)ncc23)c1 [Example 115, 7-[(R)-1-(2,6-Dichloro-3-fluorophenyl)ethoxy]-3-(4-methylthiophen-2-yl)furo[3,2-c]pyridin-6-ylamine]
RON (human); [1]
  IC50: 500 to 5000 nM
MET (human); [2]
  IC50: 500 to 5000 nM

## C[C@@H](Oc1c(N)ncc2c(C3=CCN(C(=O)C(O)C(F)(F)F)CC3)coc12)c1c(Cl)ccc(F)c1Cl (stereo partly drawn) [Example 270, 1-[4-{6-Amino-7-[(1R)-1-(2,6-dichloro-3-fluorophenyl)ethoxy]furo[3,2-c]pyridin-3-yl}-3,6-dihydropyridin-1(2H)-yl]-3,3,3-trifluoro-2-hydroxypropan-1-one]
RON (human); [1]
  IC50: 500 to 5000 nM
MET (human); [2]
  IC50: < 500 nM

## C[C@@H](Oc1c(N)ncc2c(C3=CCN(CC(=O)N4CCC(O)C4)CC3)coc12)c1c(Cl)ccc(F)c1Cl (stereo partly drawn) [Example 203, 2-(4-{6-Amino-7-[(R)-1-(2,6-dichloro-3-fluorophenyl)ethoxy]-furo[3,2-e]pyridin-3-yl}-3,6-dihydro-2H-pyridin-1-yl)-1-(3-hydroxypyrrolidin-1-yl)ethanone]
RON (human); [1]
  IC50: 500 to 5000 nM
MET (human); [2]
  IC50: < 500 nM

## C[C@@H](Oc1c(N)ncc2c(-c3cnc(N4CCOCC4)nc3)coc12)c1c(Cl)ccc(F)c1Cl [Example 283, 7-[(R)-1-(2,6-Dichloro-3-fluorophenyl)ethoxy]-3-(2-morpholin-4-ylpyrimidin-5-yl)furo[3,2-c]pyridin-6-ylamine]
RON (human); [1]
  IC50: 500 to 5000 nM
MET (human); [2]
  IC50: 500 to 5000 nM

## CC(Cc1ccccc1)Oc1c(N)ncc2c(-c3cnn(C4CCNCC4)c3)coc12 (stereo not shown) [Example 405, 7-(1-Methyl-2-phenylethoxy)-3-(1-piperidin-4-yl-1H-pyrazol-4-yl)furo[3,2-c]pyridin-6-ylamine]
RON (human); [1]
  IC50: < 500 nM
MET (human); [2]
  IC50: < 500 nM

## Nc1ncc2ccoc2c1OCc1ccc(NC(=O)c2cccn(-c3ccc(F)cc3)c2=O)cc1 [Example 461, 1-(4-Fluorophenyl)-2-oxo-1,2-dihydropyridine-3-carboxylic acid [4-(6-aminofuro[3,2-c]pyridin-7-yloxymethyl)phenyl]amide]
RON (human); [1]
  IC50: > 20000 nM
MET (human); [2]
  IC50: 500 to 5000 nM

## CCS(=O)(=O)N1CC=C(c2coc3c(O[C@H](C)c4c(Cl)ccc(F)c4Cl)c(N)ncc23)CC1 [Example 47, 7-[(R)-1-(2,6-Dichloro-3-fluorophenyl)-ethoxy]-3-(1-ethanesulfonyl-1,2,3,6-tetrahydropyridin-4-yl)-furo[3,2-c]pyridin-6-ylamine]
RON (human); [1]
  IC50: 500 to 5000 nM
MET (human); [2]
  IC50: 500 to 5000 nM

## C[C@@H](Oc1c(N)ncc2c(-c3ccc(C(=O)NCCO)cc3)coc12)c1c(Cl)ccc(F)c1Cl [Example 287, 4-{6-Amino-7-[(R)-1-(2,6-dichloro-3-fluorophenyl)ethoxy]furo[3,2-c]pyridin-3-yl}-N-(2-hydroxyethyl)benzamide]
RON (human); [1]
  IC50: 500 to 5000 nM
MET (human); [2]
  IC50: 500 to 5000 nM

## C[C@@H](Oc1c(N)ncc2c(C3=CCN(C4CN(S(C)(=O)=O)C4)CC3)coc12)c1c(Cl)ccc(F)c1Cl [Example 323]
RON (human); [1]
  IC50: 500 to 5000 nM
MET (human); [2]
  IC50: 500 to 5000 nM

## CC(/C=C/c1c(Cl)ccc(F)c1Cl)Oc1c(N)ncc2c(-c3cnn(C4CCNCC4)c3)coc12 (stereo not shown) [Example 373, 7-[(E)-3-(2,6-Dichloro-3-fluorophenyl)-1-methylallyloxy]-3-(1-piperidin-4-yl-1H-pyrazol-4-yl)furo[3,2-c]pyridin-6-ylamine]
RON (human); [1]
  IC50: 500 to 5000 nM
MET (human); [2]
  IC50: < 500 nM

## C[C@@H](Oc1c(N)ncc2c(-c3csc(CN4CCC(O)CC4)c3)coc12)c1c(Cl)ccc(F)c1Cl [Example 306, 1-(4-{6-Amino-7-[(R)-1-(2,6-dichloro-3-fluorophenyl)ethoxy]furo[3,2-c]pyridin-3-yl}thiophen-2-ylmethyl)piperidin-4-ol]
RON (human); [1]
  IC50: < 500 nM
MET (human); [2]
  IC50: < 500 nM

## C[C@@H](Oc1c(N)ncc2c(C3=CCN(C(=O)N4CC5CC4CO5)CC3)coc12)c1c(Cl)ccc(F)c1Cl (stereo partly drawn) [Example 223, (4-{6-Amino-7-[(R)-1-(2,6-dichloro-3-fluorophenyl)ethoxy]-furo[3,2-c]pyridin-3-yl}-3,6-dihydro-2H-pyridin-1-yl)-(2-oxa-5-azabicyclo[2.2.1]hept-5-yl)methanone]
RON (human); [1]
  IC50: 500 to 5000 nM
MET (human); [2]
  IC50: 500 to 5000 nM

## C[C@@H](Oc1c(N)ncc2c(-c3cccc(NS(C)(=O)=O)c3)coc12)c1c(Cl)ccc(F)c1Cl [Example 79, N-(3-{6-Amino-7-[(R)-1-(2,6-dichloro-3-fluorophenyl)ethoxy]-furo[3,2-c]pyridin-3-yl}phenyl)methanesulfonamide]
RON (human); [1]
  IC50: 500 to 5000 nM
MET (human); [2]
  IC50: < 500 nM

## C[C@@H](Oc1c(N)ncc2c(-c3ccc(C#N)nc3)coc12)c1c(Cl)ccc(F)c1Cl [Example 125, 5-{6-Amino-7-[(R)-1-(2,6-dichloro-3-fluorophenyl)-ethoxy]furo[3,2-c]pyridin-3-yl}pyridine-2-carbonitrile]
RON (human); [1]
  IC50: 5000 to 20000 nM
MET (human); [2]
  IC50: 500 to 5000 nM

## C[C@@H](Oc1c(N)ncc2c(C3=CCN(S(C)(=O)=O)CC3)coc12)c1c(Cl)ccc(F)c1Cl [Example 46, 7-[(R)-1-(2,6-Dichloro-3-fluorophenyl)-ethoxy]-3-(1-methanesulfonyl-1,2,3,6-tetrahydropyridin-4-yl)-furo[3,2-c]pyridin-6-ylamine]
RON (human); [1]
  IC50: 500 to 5000 nM
MET (human); [2]
  IC50: < 500 nM

## Nc1ncc2c(-c3cnn(C4CCNCC4)c3)coc2c1O[C@H]1CCC[C@H]1c1cccc(F)c1 [Example 408]
RON (human); [1]
  IC50: 500 to 5000 nM
MET (human); [2]
  IC50: 500 to 5000 nM

## C[C@@H](Oc1c(N)ncc2c(C3=CCN(C(=O)c4ncc[nH]4)CC3)coc12)c1c(Cl)ccc(F)c1Cl [Example 232, (4-{6-Amino-7-[(R)-1-(2,6-dichloro-3-fluorophenyl)ethoxy]-furo[3,2-c]pyridin-3-yl}-3,6-dihydro-2H-pyridin-1-yl)-(1H-imidazol-2-yl)-methanone]
RON (human); [1]
  IC50: 500 to 5000 nM
MET (human); [2]
  IC50: 500 to 5000 nM

## C[C@@H](Oc1c(N)ncc2c(C3=CCN(C(=O)[C@H]4CCCCN4)CC3)coc12)c1c(Cl)ccc(F)c1Cl [Example 239, (4-{6-Amino-7-[(R)-1-(2,6-dichloro-3-fluorophenyl)ethoxy]-furo[3,2-c]pyridin-3-yl}-3,6-dihydro-2H-pyridin-1-yl)-(R)-piperidin-2-ylmethanone]
RON (human); [1]
  IC50: < 500 nM
MET (human); [2]
  IC50: < 500 nM

## C[C@@H](Oc1c(N)ncc2c(-c3ccc(C(=O)N4CCC(=O)CC4)cc3)coc12)c1c(Cl)ccc(F)c1Cl [Example 284, 1-(4-{6-Amino-7-[(R)-1-(2,6-dichloro-3-fluorophenyl)-ethoxy]furo[3,2-c]pyridin-3-yl}benzoyl)piperidin-4-one]
RON (human)
  IC50: 500 to 5000 nM
MET (human)
  IC50: 500 to 5000 nM

## C[C@@H]1CN(C(=O)c2ccc(-c3coc4c(O[C@H](C)c5c(Cl)ccc(F)c5Cl)c(N)ncc34)cc2)C[C@H](C)N1 (relative stereo) [Example 294, (4-{6-Amino-7-[(R)-1-(2,6-dichloro-3-fluorophenyl)ethoxy]furo[3,2-c]pyridin-3-yl}phenyl)-((3S*,5R*)-3,5-dimethylpiperazin-1-yl)methanone]
RON (human); [1]
  IC50: < 500 nM
MET (human); [2]
  IC50: < 500 nM

## CC(Oc1c(N)ncc2c(-c3cnn(C4CCNCC4)c3)coc12)c1ccc2ccccc2c1 (stereo not shown) [Example 432, 7-(1-Naphthalen-2-ylethoxy)-3-(1-piperidin-4-yl-1H-pyrazol-4-yl)furo[3,2-c]pyridin-6-ylamine]
RON (human); [1]
  IC50: 500 to 5000 nM
MET (human); [2]
  IC50: 500 to 5000 nM

## CC(Oc1c(N)ncc2c(-c3cnn(C4CCNCC4)c3)coc12)c1c(Cl)c(F)cc(OCCN(C)C)c1Cl (stereo not shown) [Example 157, 7-(1-{2,6-Dichloro-3-[2-(dimethylamino)ethoxy]-5-fluorophenyl}ethoxy)-3-[1-(piperidin-4-yl)-1H-pyrazol-4-yl]furo[3,2-c]pyridin-6-amine]
RON (human); [1]
  IC50: < 500 nM
MET (human); [2]
  IC50: < 500 nM

## Nc1ncc2c(-c3cnn(C4CCNCC4)c3)coc2c1OC1CCCc2c(F)cccc21 (stereo not shown) [Example 390, 7-(5-Fluoro-1,2,3,4-tetrahydronaphthalen-1-yloxy)-3-(1-piperidin-4-yl-1H-pyrazol-4-yl)furo[3,2-c]pyridin-6-ylamine]
RON (human); [1]
  IC50: < 500 nM
MET (human); [2]
  IC50: < 500 nM

## C[C@@H](Oc1c(N)ncc2c(-c3ccnc(N4CCNCC4)c3)coc12)c1c(Cl)ccc(F)c1Cl [Example 132, 7-[(R)-(2,6-Dichloro-3-fluorophenyl)ethoxy]-3-(2-piperazin-1-yl-pyridin-4-yl)furo[3,2-c]pyridin-6-ylamine]
RON (human); [1]
  IC50: < 500 nM
MET (human); [2]
  IC50: < 500 nM

## C[C@@H](Oc1c(N)ncc2c(-c3cnn(C4CCNCC4)c3)coc12)c1ccccn1 [Example 399, 3-(1-Piperidin-4-yl-1H-pyrazol-4-yl)-7-((R)-1-pyridin-2-yl-ethoxy)furo[3,2-c]pyridin-6-ylamine]
RON (human); [1]
  IC50: 500 to 5000 nM
MET (human); [2]
  IC50: 500 to 5000 nM

## C[C@@H](Oc1c(N)ncc2c(C3=CC4CCC(C3)N4)coc12)c1c(Cl)ccc(F)c1Cl (stereo partly drawn) [Example 153, 3-(8-Azabicyclo[3.2.1]oct-2-en-3-yl)-7-[(1R)-1-(2,6-dichloro-3-fluorophenyl)ethoxy]furo[3,2-c]pyridin-6-amine]
RON (human); [1]
  IC50: 500 to 5000 nM
MET (human); [2]
  IC50: < 500 nM

## C[C@@H](Oc1c(N)ncc2c(C3=CCN(C(=O)CCCN(C)C)CC3)coc12)c1c(Cl)ccc(F)c1Cl [Example 20, 1-(4-{6-Amino-7-[(R)-1-(2,6-dichloro-3-fluorophenyl)-ethoxy]-furo[3,2-c]pyridin-3-yl}-3,6-dihydro-2H-pyridin-1-yl)-4-dimethylaminobutan-1-one]
RON (human); [1]
  IC50: < 500 nM
MET (human); [2]
  IC50: < 500 nM

## C[C@@H](Oc1c(N)ncc2c(C3=CCN(C(=O)[C@H]4CCCN4)CC3)coc12)c1c(Cl)ccc(F)c1Cl [Example 242, (4-{6-Amino-7-[(R)-1-(2,6-dichloro-3-fluorophenyl)ethoxy]-furo[3,2-c]pyridin-3-yl}-3,6-dihydro-2H-pyridin-1-yl)-(R)-pyrrolidin-2-ylmethanone]
RON (human); [1]
  IC50: < 500 nM
MET (human); [2]
  IC50: < 500 nM
